The solubility is the concentration that dissolves in the medium under given conditions. For orientation: inhibition means the drop in the measured response relative to a control, in per cent. The pIC50 is the IC50 on a negative log10 scale, so that one unit is a factor of ten. Low values mean a high IC50, high ones a low IC50.

Structures are written as SMILES. pIC50: −log10 of the molar value. Values after ≈ are worked out from the molar mass of the structure shown.

The source of these data is publication PMC6197744, “Triazolo[4,5-d]pyrimidines as Validated General Control Nonderepressible 2 (GCN2) Protein Kinase Inhibitors Reduce Growth of Leukemia Cells” (Computational and Structural Biotechnology Journal, 2018).

One data set in a line: Kinetic solubility assay. It is filed as physicochemical. Conditions: for solubility (in words): PBS pH 7.4; for solubility at 2 h: aqueous buffer, kinetic from dmso stock, PBS pH 7.4, 25 °C. How it is done: Compound solubility was determined in PBS at pH 7.4 by Pharmaron, Inc. (Beijing, China). Briefly, all compounds and control solutions were prepared in DMSO at concentrations of 10 mM. Diclofenac was used as a positive control. 10 μL or 30 μL of each compound was added into a 96-well plate, followed by adding 990 μL or 970 μL, respectively, of PBS at pH 7.4. A stir stick was added to each well and wells were sealed using a molded PTDE/SIL 96-Well Plate Cover. […] After incubation the samples were transferred into the filter plate and filtered by Vacuum Manifold. The filtered samples were diluted with methanol to obtain 3 μM standards (STD). The samples were analyzed by LC-MS/MS against a standard of known concentration in DMSO. The solubility values of duplicate test compounds were calculated in Microsoft Excel using the following equation, where DF means dilution factor: Sample=AREASample×INJVOLStd×DFSample×STD/AREAStd×INJVOLSample

For the next data set, the system named is 4E-BP mRNA. In words: qRT-PCR of 4E-BP mRNA in Drosophila S2 cells. The format is cell-based. The following applies: amino acid deprived, 10 μM, 6 h, vs DMSO control. The text has this:
It is known that under normal nutrient conditions the cap-dependent translational inhibitor 4E-BP is not expressed. However stress such as nutrient deprivation is known to trigger the transcriptional induction of 4E-BP. It has recently been shown that GCN2 and its downstream transcription factor, ATF4, mediate 4E-BP induction under amino acid deprivation in Drosophila, S2 cells. To further investigate the downstream effects of 1 and 2 on the amino acid deprivation GCN2 − ATF4 − 4E-BP pathway, the levels of 4E-BP mRNA transcript were monitored. We performed qRT-PCR on Drosophila S2 cells.
Drosophila S2 cell lines were cultured at 25 °C in Schneider's medium (Life Technologies, 21,720,024) and supplemented with 1% penicillin-streptomycin (Life Technologies, 15,140,122). For amino acid deprivation experiments, Schneider's medium lacking amino acids (USBiological Life Sciences, S0100-03) was used. Cells were treated for 6 h with 10 μM inhibitor concatenation or DMSO.
Total RNA was extracted with TRIzol Reagent (Invitrogen, USA). For cDNA synthesis, 200 ng of RNA was transcribed using SuperScript First-Strand Synthesis Kit (Invitrogen, USA). PCR amplification was performed for 25 cycles using taq polymerase (Roche) according to manufacturer's protocol. […] Results were expressed as the relative expression of mRNA levels detected in control samples and were calculated using the ΔΔCt method.
A general note: Quantitative PCR measures a nucleic acid by following its amplification.

The next data set deals with MALME-3M. In words: NCI-60 one-dose screen. It is filed as cell-based, human. Conditions: 48 h; for inhibition at 10 µM: Homo sapiens, Melanoma MALME-3M, read-out: Percent growth inhibition; for increase in cell growth: melanoma cell line MALME-3 M, 10 μM. Here is the method: (§1) Compounds 1 and 2 were submitted to the National Cancer Institute NCI-60 Tumor Cell Screening Program (NCI number 800,700 and 800,701, respectively) for evaluation against the 60 cell line NCI panel at a single dose of 10 μM. […] Leukemia and breast cancer cell lines comprised the only cancer groups that were uniformly sensitive to both 1 and 2, with the greatest sensitivity seen in the leukemia SR cell line.
(§2) Compounds 1 and 2 were submitted to the NCI for growth inhibition screening against its panel of 60 cancer cell lines. The NCI screening protocol has extensively been described [[53], [54], [55], [56]]. Briefly, cancerous cell lines were grown in RPMI 1640 medium containing 5% fetal bovine serum and 2 mM L-glutamine. Depending on the doubling time of each cell line, 5000–40,000 cells were seeded in 96-well plates for 24 h. Cells were then treated with compounds 1 or 2 at a concentration of 10 μM and incubated for 48 h at 37 °C in a humidified atmosphere containing 5% CO2. The cells were then fixed and stained with sulforhodamine B (SRB) to determine their viability. The data were analyzed using a program called COMPARE to determine the percent growth inhibition of each compound.

Data set [1] has as its system phosphorylation of eIF2α (p-eIF2α). In words: p-eIF2α reduction in amino acid deprived HEK293T cells (Western blot). The format is cell-based. Conditions: Homo sapiens, HEK-293T, amino acid deprived 4 h. Here is the method: Compounds 1–9 were screened in a radiometric […] kinase assay against human GCN2 and other kinases involved in the UPR and ISR pathways (Table 1). […] The most soluble of the potent tool compounds (1 and 2) were selected for in vitro cell-based assays where the phosphorylation of eIF2α (p-eIF2α) was used as a readout for GCN2 inhibition.
HEK293T cells were purchased from the American Type Culture Collection and were cultured in Dulbecco's modified Eagle's medium (DMEM; GIBCO-11995) supplemented with 10% fetal bovine serum (FBS) (Corning™ 35015CV) and antibiotics (penicillin, 10,000 UI/ml and streptomycin, 10,000 UI/ml) (Life Technologies, 15,140,122). When indicated, cells were deprived of amino acids for 4 h with DMEM (DMEM; GIBCO-21013024) containing no glutamine, no methionine, no cysteine, and no FBS. Upon starvation, cells were treated with DMSO or compound. All cell lines were maintained in humidified incubators at 37 °C under 5% CO2.
Cells were lysed for 10 min on ice with RIPA lysis buffer (50 mM Tris (pH 8), 150 mM NaCl, 1% NP-40, 0.5% sodium deoxycholate, 0.1% SDS, containing Protease Inhibitor Cocktail (PIC) (ROCHE, 11836170001), 100 mM NaF, 2 mM NaVO4, 1 mM Na B-glycerophosphate). […] IC50s were calculated using dose response – Inhibition nonlinear regression algorithm [[inhibitor] vs. response] in GraphPad Prism 7 (GraphPad Software).
On the technique in general: Immunoblotting shows a protein as a band on a membrane.

A further data set concerns T-47D. The experiment in a line: NCI-60 one-dose screen. The format is cell-based. The following applies: Homo sapiens, T47D, Breast T-47D, 48 h, read-out: Percent growth inhibition. Here is the method: as §1, §2
For a further data set, the system named is SF-539. The experiment in a line: NCI-60 one-dose screen. It is filed as cell-based. Conditions: Homo sapiens; CNS SF-539, 10 μM, 48 h; read-out: Percent growth inhibition. How it is done: as §1, §2
The next data set concerns MDA-MB-468. The experiment in a line: NCI-60 one-dose screen. It is filed as cell-based. Conditions: Homo sapiens; Breast MDA-MB-468, 10 μM, 48 h; read-out: Percent growth inhibition. Here is the method: as §1, §2
Another data set concerns HL-60(TB). In words: NCI-60 one-dose screen. It is filed as cell-based. Conditions: Homo sapiens, HL-60, 48 h, read-out: Percent growth inhibition.

For the molecule `CCn1cc(Nc2ncc3nnn(-c4ccc(C(=O)OC)cc4)c3n2)cn1` [Compound 1, Methyl 4-(5-((1-ethyl-1H-pyrazol-4-yl)amino)-3H-[1,2,3]triazolo[4,5-d]pyrimidin-3-yl)benzoate], the “solubility (in words)” value in the data set “Kinetic solubility assay” is “poor”. In the data set “Kinetic solubility assay”, this molecule gave a solubility at 2 h of 0.65 µM (≈ 0.237 µg/mL). Further, in the data set on 4E-BP mRNA, the “relative 4E-BP mRNA levels” value is reported as “decreased”. In addition, the inhibition at 10 µM in the data set with MALME-3M was -27.7%; with T-47D, 25.8%; in the data set with SF-539, -9.47%; in the data set on MDA-MB-468, 6.13%; with HL-60(TB), 8.55%. For the same molecule, in the data set with MALME-3M, the “increase in cell growth” value was determined as 27.7%. Further, in data set [1], the pIC50 is 7.28.
On to `CCOc1ccc(-n2nnc3cnc(Nc4cnn(CC)c4)nc32)cc1` [Compound 2, 3-(4-Ethoxyphenyl)-N-(1-ethyl-1H-pyrazol-4-yl)-3H-[1,2,3]triazolo[4,5-d]pyrimidin-5-amine], for which the “solubility (in words)” value in the data set “Kinetic solubility assay” is reported as “poor”. In addition, the solubility at 2 h in “Kinetic solubility assay” turned out to be 0.31 µM (≈ 0.109 µg/mL). For the same molecule, the “relative 4E-BP mRNA levels” value with 4E-BP mRNA was “decreased”. Besides, the inhibition at 10 µM with MALME-3M is -37.2%; with T-47D it was 20.7%; in the data set on SF-539, 32%; in the data set on MDA-MB-468 it was 9.91%; in the data set on HL-60(TB) it was 24.6%. Also, the “increase in cell growth” value in the data set with MALME-3M is 37.2%. The pIC50 in data set [1] is 6.86.
